This is an account of results in ChEMBL document CHEMBL1201862, “PubChem BioAssay data set” (2004).

The source made the active and inactive calls.

Assay [1] has as its system Streptococcus sp. 'group A'. As to the kind of experiment: growth inhibition of control SK(-) GAS strain, dose response, counter-screen for streptokinase expression inhibitor project, luminescence, kanamycin, BacTiterGlo, confirmation (AID 1900). Type of assay: functional, organism-based.
In assay [2] the target is T1, RNA-binding protein pos-1 (Caenorhabditis elegans, UniProt G5EF15).
T1 sequence (G5EF15 whole entry): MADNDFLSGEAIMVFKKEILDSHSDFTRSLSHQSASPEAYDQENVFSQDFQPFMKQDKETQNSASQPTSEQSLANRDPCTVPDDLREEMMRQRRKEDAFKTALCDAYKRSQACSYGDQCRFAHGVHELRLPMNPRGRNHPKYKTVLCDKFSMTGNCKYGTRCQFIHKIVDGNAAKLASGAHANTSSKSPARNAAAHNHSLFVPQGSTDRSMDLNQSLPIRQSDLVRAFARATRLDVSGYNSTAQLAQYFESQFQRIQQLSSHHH
Briefly: inhibitors of POS-1/mex-3 RNA binding, dose response, biochemical, fluorescence polarization (AID 1964).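 Also: purified POS-1 fused to maltose binding protein made in E. coli; potency of compounds blocking POS-1 binding to fluorescent RNA.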

For assay [3], the system named is Escherichia coli. Briefly: microbe, parasite or virus in culture.
In assay [4] the target is T2, Zinc finger protein mex-5 (Caenorhabditis elegans, UniProt Q9XUB2).
T2 sequence (Q9XUB2 whole entry): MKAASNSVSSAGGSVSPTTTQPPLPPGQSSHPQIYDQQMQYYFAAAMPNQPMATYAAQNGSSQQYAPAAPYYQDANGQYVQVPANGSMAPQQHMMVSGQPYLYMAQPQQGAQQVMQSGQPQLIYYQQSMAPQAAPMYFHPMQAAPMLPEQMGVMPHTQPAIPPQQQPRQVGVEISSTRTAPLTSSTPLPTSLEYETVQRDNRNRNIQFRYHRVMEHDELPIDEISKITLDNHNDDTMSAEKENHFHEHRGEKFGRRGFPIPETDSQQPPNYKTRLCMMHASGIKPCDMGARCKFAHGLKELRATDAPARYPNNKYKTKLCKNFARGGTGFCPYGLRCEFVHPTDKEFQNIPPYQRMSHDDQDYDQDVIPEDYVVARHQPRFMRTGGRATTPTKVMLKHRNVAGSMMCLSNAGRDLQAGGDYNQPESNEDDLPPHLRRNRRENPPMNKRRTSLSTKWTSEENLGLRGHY
Briefly: MEX-5/TCR-2 RNA interaction inhibitors, dose response, biochemical, C. elegans, fluorescence polarization (AID 1960).

Assay [5] has as its system Streptococcus. As to the kind of experiment: Group A Streptococcus viability loss, dose response, counter-screen for streptokinase expression inhibitor project, luminescence, BacTiterGlo (AID 1915).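 Also: potency for reduction of bacterial viability or growth.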 The assay is classed as functional, organism-based.
In assay [6] the test system is Escherichia coli. As to the kind of experiment: microbe, parasite or virus in culture. This is another data set of the same source.
Assay [7] concerns HeLa. As to the kind of experiment: HeLa cell cytotoxicity, dose response, cytotoxicity control for MITF activator project, CellTiter-Glo luminescence, cherry-pick samples (AID 540259). As to conditions: Homo sapiens. The assay is classed as functional, cell-based.
The target of assay [8] is T3, Beta-adrenergic receptor kinase 1 (Homo sapiens, UniProt P25098).
T3 sequence (P25098 whole entry): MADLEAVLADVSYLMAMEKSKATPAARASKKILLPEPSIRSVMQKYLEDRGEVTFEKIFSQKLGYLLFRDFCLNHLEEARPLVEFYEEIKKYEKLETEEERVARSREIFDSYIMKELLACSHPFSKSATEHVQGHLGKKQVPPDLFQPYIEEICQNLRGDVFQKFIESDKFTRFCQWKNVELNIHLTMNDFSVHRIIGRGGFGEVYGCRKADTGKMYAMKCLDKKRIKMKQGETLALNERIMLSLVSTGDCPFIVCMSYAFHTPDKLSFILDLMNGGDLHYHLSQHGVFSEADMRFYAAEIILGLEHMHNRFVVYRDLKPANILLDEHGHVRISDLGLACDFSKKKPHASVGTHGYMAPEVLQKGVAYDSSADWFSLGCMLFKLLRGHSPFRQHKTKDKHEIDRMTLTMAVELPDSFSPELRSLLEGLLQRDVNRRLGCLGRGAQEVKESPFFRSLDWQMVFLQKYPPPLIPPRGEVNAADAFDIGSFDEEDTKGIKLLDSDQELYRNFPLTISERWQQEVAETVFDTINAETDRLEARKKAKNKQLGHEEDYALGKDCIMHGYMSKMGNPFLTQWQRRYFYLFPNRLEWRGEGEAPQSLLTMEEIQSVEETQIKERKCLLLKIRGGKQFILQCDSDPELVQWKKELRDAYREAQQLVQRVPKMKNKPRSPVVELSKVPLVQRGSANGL
As to the kind of experiment: GRK2 inhibitors displacing RNA aptamer, dose response, biochemical, flow cytometry beads, FAM-aptamer, powder set 1 (AID 588720).

Assay [9] concerns INS1. As to the kind of experiment: protection of INS-1E cells from cytokine death, dose response, ATP luminescence, dry powder (AID 488844). The assay is classed as functional, cell-based. The note with it: Rattus norvegicus.
For assay [10], the system named is INS1. As to the kind of experiment: protection from cytokine-induced mitochondrial depolarization, dose response, cell-based, INS-1E, JC-1 fluorescence ratio, dry powder (AID 488931). The note with it: Rattus norvegicus. Type of assay: functional.
Assay [11] concerns the target Heat shock protein HSP 90-alpha (Homo sapiens, UniProt P07900). Type of assay: functional, organism-based.
Assay [12] deals with Vero. As to the kind of experiment: cells. The assay is classed as functional, Chlorocebus sabaeus. The note with it: Chlorocebus sabaeus, Vero.
For assay [13], the system named is HEK293. Briefly: cells. As to conditions: Homo sapiens.
The subject of assay [14] is HEK293. Briefly: cells. As to conditions: Homo sapiens. This is another data set of the same source.
For assay [15], the system named is Streptococcus. As to the kind of experiment: Luminescence Microorganism-Based Dose Response Follow up to Identify Compounds Cytotoxic to Streptococcus. [Related pubchem assays: 1677 (Project Summary), 1915, 1914, 1902 (Retest at Dose), 1900 (Counter Screen), 1662 (Primary HTS)]. Type of assay: functional, organism-based.
Assay [16] is described as follows: off-target signal loss in HeLa-CEM21 co-culture – HeLa F-luc CTL cells, cherry-picked, counter-screen for HIV-1 Env fusion inhibitor project, dose response (AID 652040).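 Also: potency for signal decrease marking cytotoxic or nonspecific inhibition.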 Type of assay: functional, cell-based.
A short description of assay [17]: inhibitors of clade B AD8 Env fusion, dose response, cell-based, cherry-pick (AID 652062).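 Also: luciferase signal from cell-cell fusion driven by HIV-1 clade B AD8 Env; potency is for inhibitors of fusion seen as a drop in luminescence.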 The assay is classed as functional.
In assay [18] the target is T4, Streptokinase A (Streptococcus pyogenes serotype M1, UniProt P10520).
T4 sequence (P10520 whole entry): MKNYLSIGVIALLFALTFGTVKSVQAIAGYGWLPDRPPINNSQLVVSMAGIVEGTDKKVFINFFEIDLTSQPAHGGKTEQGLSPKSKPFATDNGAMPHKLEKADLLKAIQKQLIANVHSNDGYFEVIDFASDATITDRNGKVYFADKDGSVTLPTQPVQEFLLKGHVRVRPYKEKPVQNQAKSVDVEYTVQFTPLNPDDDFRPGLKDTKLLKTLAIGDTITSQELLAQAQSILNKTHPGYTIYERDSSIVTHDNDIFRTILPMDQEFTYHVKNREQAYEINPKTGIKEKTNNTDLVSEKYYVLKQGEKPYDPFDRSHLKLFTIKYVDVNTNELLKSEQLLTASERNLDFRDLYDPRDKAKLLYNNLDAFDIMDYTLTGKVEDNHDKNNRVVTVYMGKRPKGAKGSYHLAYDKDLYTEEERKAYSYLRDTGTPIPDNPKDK
As to the kind of experiment: S. pyogenes streptokinase expression inhibitors, potency, dose response, plasminogen activation absorbance, OD405 (AID 1914).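 Also: secreted streptokinase activity via plasminogen activation per viability signal from cell pellet.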 The assay is classed as functional, Streptococcus pyogenes M1 GAS.

Assay [19] is described as follows: Luminescence Cell-Based Dose Retest to Confirm Inhibitors of Cancer Stem Cells. [Related pubchem assays (depositor defined):AID2717, AID2721]. The assay is classed as functional. As to conditions: Homo sapiens.
Assay [20] in a line: CEM21 lymphoblast cell cytotoxicity, dose response, cytotoxicity control for viral fusion inhibitor project, CellTiter-Glo luminescence, cherry-picked (AID 652042).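 Also: potency for signal decrease meaning cytotoxicity.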 Type of assay: functional, cell-based.
Assay [21] in a line: ZM109 Env clade C HIV-1 fusion inhibitors, dose response, HeLa effector, CEM target cells, luciferase, cherry-pick (AID 652058). The assay is classed as functional, cell-based.
The target in assay [22] is T5, Heat shock factor protein 1 (Mus musculus, UniProt P38532).
T5 sequence (P38532 whole entry): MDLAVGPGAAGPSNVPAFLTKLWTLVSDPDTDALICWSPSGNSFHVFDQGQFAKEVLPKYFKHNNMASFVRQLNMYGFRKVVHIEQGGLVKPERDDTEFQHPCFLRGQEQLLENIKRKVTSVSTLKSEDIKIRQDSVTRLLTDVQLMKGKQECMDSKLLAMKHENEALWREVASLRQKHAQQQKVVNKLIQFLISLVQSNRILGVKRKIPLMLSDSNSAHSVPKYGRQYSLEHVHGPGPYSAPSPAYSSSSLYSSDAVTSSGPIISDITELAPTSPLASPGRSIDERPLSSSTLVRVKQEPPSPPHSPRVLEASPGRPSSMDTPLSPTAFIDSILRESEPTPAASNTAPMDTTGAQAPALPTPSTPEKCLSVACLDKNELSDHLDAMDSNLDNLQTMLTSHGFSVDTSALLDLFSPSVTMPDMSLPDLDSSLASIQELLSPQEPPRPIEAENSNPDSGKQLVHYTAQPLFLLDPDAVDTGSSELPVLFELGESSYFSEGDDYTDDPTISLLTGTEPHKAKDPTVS
As to the kind of experiment: HSF1 potentiators in luciferase reporter cells, confirmation, cell-based, NIH3T3, luminescence, dose retest (AID 435004).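 Also: stress induced by proteasome inhibitor MG132 added 30 min after compound; luciferase reporter driven by HSF1 response element in NIH3T3 cells; actives raise luminescence as potentiators of the MG132 stress response.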 Type of assay: functional.

A short description of assay [23]: inhibitors of HIV Env-driven cell fusion, dose response, cherry-pick (AID 652057). Type of assay: functional, cell-based.
The target of assay [24] is Trypsin (Sus scrofa, UniProt P00761). As to the kind of experiment: porcine trypsin inhibitors, dose response, selectivity assay for Rce1 protease inhibitor project, biochemical, quenched peptide fluorescence, cherry-pick (AID 488789).
The target of assay [25] is CAAX prenyl protease 2 (Homo sapiens, UniProt Q9Y256). As to the kind of experiment: human Rce1 protease inhibitors, dose response, biochemical, yeast membranes, quenched-peptide fluorescence, cherry-pick (AID 588849).
Assay [26] deals with T6, CAAX prenyl protease 2 (Saccharomyces cerevisiae S288c, UniProt Q03530).
T6 sequence (Q03530 whole entry): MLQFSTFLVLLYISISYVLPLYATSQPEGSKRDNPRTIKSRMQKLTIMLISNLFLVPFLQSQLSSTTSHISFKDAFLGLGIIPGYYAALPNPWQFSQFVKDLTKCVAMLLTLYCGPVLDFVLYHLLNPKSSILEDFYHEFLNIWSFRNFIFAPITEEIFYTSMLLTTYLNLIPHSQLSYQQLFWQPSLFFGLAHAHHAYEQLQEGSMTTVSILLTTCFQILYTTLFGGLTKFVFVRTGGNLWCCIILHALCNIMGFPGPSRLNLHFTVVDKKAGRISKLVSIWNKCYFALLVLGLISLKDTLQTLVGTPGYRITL
Type of assay: biochemical.

Assay [27] deals with Large T antigen (Simian virus 40, UniProt P03070). Type of assay: functional, Betapolyomavirus macacae.
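For IC50 in this document: Confirmatory-stage PubChem screen for compounds that inhibit SV40 T antigen.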

Chain of CAAX prenyl protease 2 (Homo sapiens, UniProt Q9Y256) (Q9Y256 whole entry): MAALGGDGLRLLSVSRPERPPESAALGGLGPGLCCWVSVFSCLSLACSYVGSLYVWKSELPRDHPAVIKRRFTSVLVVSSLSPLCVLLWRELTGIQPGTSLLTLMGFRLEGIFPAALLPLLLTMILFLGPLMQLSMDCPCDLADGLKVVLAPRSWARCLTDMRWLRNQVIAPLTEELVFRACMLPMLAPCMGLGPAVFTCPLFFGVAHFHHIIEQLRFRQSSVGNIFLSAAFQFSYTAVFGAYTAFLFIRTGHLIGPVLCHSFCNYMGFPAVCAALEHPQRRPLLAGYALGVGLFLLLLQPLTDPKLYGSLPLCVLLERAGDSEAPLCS
Chain of Trypsin (P00761 whole entry): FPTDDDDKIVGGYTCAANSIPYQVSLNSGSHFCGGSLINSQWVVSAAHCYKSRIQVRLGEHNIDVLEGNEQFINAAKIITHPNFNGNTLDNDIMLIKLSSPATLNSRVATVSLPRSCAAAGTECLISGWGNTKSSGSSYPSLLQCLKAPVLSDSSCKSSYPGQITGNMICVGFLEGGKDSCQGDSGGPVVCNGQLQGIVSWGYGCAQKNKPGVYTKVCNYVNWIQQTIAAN
Chain of Large T antigen (P03070 whole entry): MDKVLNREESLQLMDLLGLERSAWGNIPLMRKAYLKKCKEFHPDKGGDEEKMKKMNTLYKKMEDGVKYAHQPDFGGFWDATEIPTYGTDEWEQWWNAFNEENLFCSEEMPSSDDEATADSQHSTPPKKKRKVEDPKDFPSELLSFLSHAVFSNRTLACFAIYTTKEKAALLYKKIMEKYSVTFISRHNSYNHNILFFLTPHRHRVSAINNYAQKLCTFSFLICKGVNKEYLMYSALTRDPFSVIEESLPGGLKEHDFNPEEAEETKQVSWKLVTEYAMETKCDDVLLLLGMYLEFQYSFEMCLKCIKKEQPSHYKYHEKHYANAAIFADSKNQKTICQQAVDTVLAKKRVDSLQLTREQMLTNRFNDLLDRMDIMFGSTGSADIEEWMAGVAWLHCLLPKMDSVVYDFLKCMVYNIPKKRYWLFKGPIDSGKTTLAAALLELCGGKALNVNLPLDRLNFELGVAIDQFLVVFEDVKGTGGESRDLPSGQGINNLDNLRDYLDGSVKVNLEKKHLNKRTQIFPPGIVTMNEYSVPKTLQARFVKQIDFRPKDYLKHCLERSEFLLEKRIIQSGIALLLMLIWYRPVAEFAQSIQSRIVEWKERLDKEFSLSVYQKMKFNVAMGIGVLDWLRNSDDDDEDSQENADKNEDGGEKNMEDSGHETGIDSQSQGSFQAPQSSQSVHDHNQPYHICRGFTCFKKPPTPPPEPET

On to `CN(C)c1ccc(O)c2c1CC1CC3C(N(C)C)C(=O)C(C(N)=O)=C(O)[C@@]3(O)C(=O)C1=C2O` (stereo partly specified), for which the EC50 is 0.078 µM (active) in [1], > 300 µM (not active) in assay [2], 37 µM (active) in [4] and 0.184 µM (active) in [5]. The AC50 is 1.78 µM (active) in [3] and 11.4 µM (active) in assay [6].

For `CCCC(=O)c1ccc(N2CCCCCC2)c(F)c1`, in assay [7], the AC50 is 205 µM (active).

In the case of `COC(=O)c1ccc(NC(=O)CCS(=O)(=O)c2ccc(Br)cc2)cc1`, the EC50 in assay [8] is 6.56 µM (active).

For `CCCc1cc(-c2ccc3c(c2)COc2c4ccccc4nn2-3)on1`, the AC50 in assay [7] is 40 µM (active).

As to `Cc1ccc(S(=O)(=O)N(C)C[C@@H]2Oc3c(NC(=O)Nc4ccccc4)cccc3C(=O)N([C@@H](C)CO)C[C@H]2C)cc1`, the AC50 is 27 µM (active) in [9] and 81.6 µM (active) in assay [10].

Regarding `CC(=O)Oc1ccccc1C(=O)C=Cc1cccc([N+](=O)[O-])c1`, the AC50 in assay [11] is 3.01 µM (active). The CC50 in assay [12] was 16.5 µM (active). For the same compound, the EC50 in assay [13] and in assay [14] was > 59.6 µM (inactive) throughout.

For `CC(=O)N(C)c1ccc(OCC(O)Cn2c3ccc(Cl)cc3c3cc(Cl)ccc32)cc1` (stereo unspecified), the EC50 in assay [15] is 9.63 µM (active); in [1], 2.7 µM (active); in assay [13], > 59.6 µM (inactive); in assay [18], 2.66 µM (active); in assay [5], 80.6 µM (active); in assay [14] it was > 59.6 µM (inactive). For the same compound, in assay [22], the EC50 is > 260 µM (inactive). Moreover, the AC50 in [11] is 5.12 µM (active); in assay [16] it was 2.47 µM (active); in [17], 4.49 µM (active); in [19] it was 1.59 µM (active); in assay [20], 23.2 µM (active); in assay [21], 2.38 µM (active). The AC50 in [23] is 2.19 µM (active).

For `CN1CC(C(=O)O)Cc2c1ccc1ccccc21` (stereo unspecified), the AC50 in [24] was 5.17 µM (active); in assay [25] it was 7.4 µM (active); in assay [26], 9.61 µM (active). Moreover, the IC50 in [27] is 19.4 µM (active).

In the case of `OCCCNc1ncnc2sc(-c3ccccc3)cc12`, the figures for the AC50 in [24] and in [25] were 7.39 µM (active) and 8.43 µM (active), respectively.

As to `COc1ccc(-n2c(Cc3cccn3C)nnc2SCC(=O)Nc2ccc(C(C)=O)cc2)cc1`, the concentration at half-maximal activity (AC50) in [6] was 56.8 µM (active).
